This is an account of results in US10590140B2, “Tetrahydropyrimidodiazepine and dihydropyridodiazepine compounds for treating pain and pain related conditions” (ESTEVE PHARMACEUTICALS, S.A., priority 2016, dated 2020).

Where only a bound is given, the exact number is not on record here.

Chain of human α2δ-1 subunit of Cav2.2 calcium channel (P54289 25-1103): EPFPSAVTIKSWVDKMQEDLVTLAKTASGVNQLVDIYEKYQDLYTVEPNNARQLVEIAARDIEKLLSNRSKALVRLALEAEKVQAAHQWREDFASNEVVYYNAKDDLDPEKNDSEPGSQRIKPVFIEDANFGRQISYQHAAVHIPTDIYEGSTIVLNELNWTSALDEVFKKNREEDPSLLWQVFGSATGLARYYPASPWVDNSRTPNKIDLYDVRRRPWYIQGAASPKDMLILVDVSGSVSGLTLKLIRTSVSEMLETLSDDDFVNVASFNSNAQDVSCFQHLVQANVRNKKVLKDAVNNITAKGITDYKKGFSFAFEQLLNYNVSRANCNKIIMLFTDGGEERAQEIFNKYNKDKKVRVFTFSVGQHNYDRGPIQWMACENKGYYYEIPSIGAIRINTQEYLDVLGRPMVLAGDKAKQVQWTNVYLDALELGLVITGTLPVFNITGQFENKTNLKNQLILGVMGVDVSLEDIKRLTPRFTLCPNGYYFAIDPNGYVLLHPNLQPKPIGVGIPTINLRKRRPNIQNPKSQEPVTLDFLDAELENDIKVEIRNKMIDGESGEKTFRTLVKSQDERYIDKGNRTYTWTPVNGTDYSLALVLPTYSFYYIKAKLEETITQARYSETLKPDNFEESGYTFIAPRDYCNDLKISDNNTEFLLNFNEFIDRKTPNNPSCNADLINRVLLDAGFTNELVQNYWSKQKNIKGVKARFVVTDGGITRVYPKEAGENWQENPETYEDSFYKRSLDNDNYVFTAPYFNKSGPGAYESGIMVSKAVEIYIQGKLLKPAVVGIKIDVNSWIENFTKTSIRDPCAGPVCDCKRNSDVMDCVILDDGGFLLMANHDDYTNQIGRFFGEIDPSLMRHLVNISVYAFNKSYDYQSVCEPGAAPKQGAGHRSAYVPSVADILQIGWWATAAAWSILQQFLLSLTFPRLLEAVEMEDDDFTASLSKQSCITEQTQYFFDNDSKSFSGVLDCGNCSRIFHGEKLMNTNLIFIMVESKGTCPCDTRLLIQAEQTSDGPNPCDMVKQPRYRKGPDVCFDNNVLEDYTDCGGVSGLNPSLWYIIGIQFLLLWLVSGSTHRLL

The first experiment has as its target human α2δ-1 subunit of Cav2.2 calcium channel (Homo sapiens (Human), UniProt P54289). As to the kind of experiment: Binding assay to human α2δ-1 subunit of Cav2.2 calcium channel ([3H]-Gabapentin). Particulars: Table 2, dual compounds; [3H]-Gabapentin binding; read-out: Ki (nM) α2δ-1. In a few lines:
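Radioactivity on dried GF/C filters quantified by scintillation after filtration and three cold Tris-HCl (pH 7.4) washes. Incubation ran 60 min at 27° C with [3H]-gabapentin; 10 μM pregabalin gave nonspecific binding.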
With `CCNc1ncc2c(n1)N(C)CCN(c1cccc(COC(CCNC)c3cccs3)c1)C2=O` (stereo not shown) [Example 211, 2-(ethylamino)-9-methyl-6-(3-((3-(methylamino)-1-(thiophen-2-yl)propoxy)methyl)phenyl)-6,7,8,9-tetrahydro-5H-pyrimido[4,5-e][1,4]diazepin-5-one], the Ki (commonly a dissociation constant, usually derived from enzyme kinetics or from competition with a known ligand) lay within 100 to 500 nM.
Same read-out and setting: the result for `CCNc1ncc2c(n1)N(C)CCN(c1cccc(CO[C@H](CCNC)c3cccs3)c1)C2=O` [Example 212, (R)-2-(ethylamino)-9-methyl-6-(3-((3-(methylamino)-1-(thiophen-2-yl)propoxy)methyl)phenyl)-6,7,8,9-tetrahydro-5H-pyrimido[4,5-e][1,4]diazepin-5-one] reads 100 to 500 nM; that for `CNCCC(OCc1cccc(N2CCN(C)c3nc(OC)ncc3C2=O)c1)c1cccs1` (stereo not shown) [Example 221, 2-methoxy-9-methyl-6-(3-((3-(methylamino)-1-(thiophen-2-yl)propoxy)methyl)phenyl)-6,7,8,9-tetrahydro-5H-pyrimido[4,5-e][1,4]diazepin-5-one], 100 to 500 nM.

Still in this experiment, the particulars now being: binding to α2δ-1, [3H]-Gabapentin; read-out: Ki (nM) α2δ-1.
For `CCNc1ncc2c(n1)N(C)CCN(c1cccc(-n3cc(CNC)nn3)c1)C2=O` [Example 180, 2-(ethylamino)-9-methyl-6-(3-(4-((methylamino)methyl)-1H-1,2,3-triazol-1-yl)phenyl)-6,7,8,9-tetrahydro-5H-pyrimido[4,5-e][1,4]diazepin-5-one], the Ki is 100 to 500 nM.
Same read-out and setting: the result for `CCNc1ncc2c(n1)N(C)CCN(c1cccc(-n3cc(CN)nn3)c1)C2=O` [Example 181, 6-(3-(4-(aminomethyl)-1H-1,2,3-triazol-1-yl)phenyl)-2-(ethylamino)-9-methyl-6,7,8,9-tetrahydro-5H-pyrimido[4,5-e][1,4]diazepin-5-one] reads 100 to 500 nM; that for `CCNc1ncc2c(n1)N(C)CCN(c1cccc(Cn3cc(CNC)nn3)c1)C2=O` [Example 184, 2-(ethylamino)-9-methyl-6-(3-((4-((methylamino)methyl)-1H-1,2,3-triazol-1-yl)methyl)phenyl)-6,7,8,9-tetrahydro-5H-pyrimido[4,5-e][1,4]diazepin-5-one], 500 to 3000 nM.
With `CCNc1ncc2c(n1)N(C)CCN(c1cccc(-n3cc(CNC)cn3)c1)C2=O` [Example 185, 2-(ethylamino)-9-methyl-6-(3-(4-((methylamino)methyl)-1H-pyrazol-1-yl)phenyl)-6,7,8,9-tetrahydro-5H-pyrimido[4,5-e][1,4]diazepin-5-one], the Ki was in the range of 100 to 500 nM.
Same read-out and setting: the result for `CCNc1ncc2c(n1)N(C)CCN(c1cccc(-n3cnc(CNC)c3)c1)C2=O` [Example 186, 2-(ethylamino)-9-methyl-6-(3-(4-((methylamino)methyl)-1H-imidazol-1-yl)phenyl)-6,7,8,9-tetrahydro-5H-pyrimido[4,5-e][1,4]diazepin-5-one] reads 100 to 500 nM; that for `CCNc1ncc2c(n1)N(C)CCN(c1cccc(-c3nnc(CNC)o3)c1)C2=O` [Example 187, 2-(ethylamino)-9-methyl-6-(3-(5-((methylamino)methyl)-1,3,4-oxadiazol-2-yl)phenyl)-6,7,8,9-tetrahydro-5H-pyrimido[4,5-e][1,4]diazepin-5-one], greater than 3000 nM; that for `CCNc1ncc2c(n1)N(C)CCN(c1ccccc1OC(CCNC)c1ccccc1)C2=O` (stereo not shown) [Example 188, 2-(ethylamino)-9-methyl-6-(2-(3-(methylamino)-1-phenylpropoxy)phenyl)-6,7,8,9-tetrahydro-5H-pyrimido[4,5-e][1,4]diazepin-5-one], greater than 3000 nM.
`CCNc1ncc2c(n1)N(C)CCN(c1cccc(COC(CCNC)C(C)C)c1)C2=O` (stereo not shown) [Example 189, 2-(ethylamino)-9-methyl-6-(3-(((4-methyl-1-(methylamino)pentan-3-yl)oxy)methyl)phenyl)-6,7,8,9-tetrahydro-5H-pyrimido[4,5-e][1,4]diazepin-5-one]: the Ki was 500 to 3000 nM.
The same measure, in the same setting: the result for `CNCCC(OCc1cccc(N2CCN(C)c3nc(SC)ncc3C2=O)c1)C(C)C` (stereo not shown) [Example 190, 9-methyl-6-(3-(((4-methyl-1-(methylamino)pentan-3-yl)oxy)methyl)phenyl)-2-(methylthio)-6,7,8,9-tetrahydro-5H-pyrimido[4,5-e][1,4]diazepin-5-one] reads greater than 3000 nM; that for `CCNc1ncc2c(n1)N(C)CCN(c1cccc(COC(C)CCNC)c1)C2=O` (stereo not shown) [Example 191, 2-(ethylamino)-9-methyl-6-(3-(((4-(methylamino)butan-2-yl)oxy)methyl)phenyl)-6,7,8,9-tetrahydro-5H-pyrimido[4,5-e][1,4]diazepin-5-one], 500 to 3000 nM; that for `CNCCC(C)OCc1cccc(N2CCN(C)c3nc(SC)ncc3C2=O)c1` (stereo not shown) [Example 192, 9-methyl-6-(3-(((4-(methylamino)butan-2-yl)oxy)methyl)phenyl)-2-(methylthio)-6,7,8,9-tetrahydro-5H-pyrimido[4,5-e][1,4]diazepin-5-one], greater than 3000 nM.
`CCNc1ncc2c(n1)N(C)CCN(Cc1cccc(OC(CNC)c3ccccc3)c1)C2=O` (stereo not shown) [Example 200, 2-(ethylamino)-9-methyl-6-(3-(2-(methylamino)-1-phenylethoxy)benzyl)-6,7,8,9-tetrahydro-5H-pyrimido[4,5-e][1,4]diazepin-5-one]: the Ki is greater than 3000 nM.
On the same count and under the same terms, the result for `CCNc1ncc2c(n1)N(C)CCN(Cc1ccc(CNC)cc1)C2=O` [Example 202, 2-(ethylamino)-9-methyl-6-(4-((methylamino)methyl)benzyl)-6,7,8,9-tetrahydro-5H-pyrimido[4,5-e][1,4]diazepin-5-one] reads 500 to 3000 nM.
Same read-out and setting: the result for `CCNc1ncc2c(n1)N(C)CCN(c1cccc(COC(CCNC)c3cccs3)c1)C2=O` (stereo not shown) [Example 211, 2-(ethylamino)-9-methyl-6-(3-((3-(methylamino)-1-(thiophen-2-yl)propoxy)methyl)phenyl)-6,7,8,9-tetrahydro-5H-pyrimido[4,5-e][1,4]diazepin-5-one] reads 100 to 500 nM.
Same read-out and setting: the result for `CCNc1ncc2c(n1)N(C)CCN(c1cccc(CO[C@H](CCNC)c3cccs3)c1)C2=O` [Example 212, (R)-2-(ethylamino)-9-methyl-6-(3-((3-(methylamino)-1-(thiophen-2-yl)propoxy)methyl)phenyl)-6,7,8,9-tetrahydro-5H-pyrimido[4,5-e][1,4]diazepin-5-one] reads 100 to 500 nM.
With `CCNc1ncc2c(n1)N(C)CCN(c1cccc(OC(CCNCCF)c3cccs3)c1)C2=O` (stereo not shown) [Example 220, 2-(ethylamino)-6-(3-(3-((2-fluoroethyl)amino)-1-(thiophen-2-yl)propoxy)phenyl)-9-methyl-6,7,8,9-tetrahydro-5H-pyrimido[4,5-e][1,4]diazepin-5-one], the Ki lay within 500 to 3000 nM.
Still for that read-out and setting: the result for `CNCCC(OCc1cccc(N2CCN(C)c3nc(OC)ncc3C2=O)c1)c1cccs1` (stereo not shown) [Example 221, 2-methoxy-9-methyl-6-(3-((3-(methylamino)-1-(thiophen-2-yl)propoxy)methyl)phenyl)-6,7,8,9-tetrahydro-5H-pyrimido[4,5-e][1,4]diazepin-5-one] reads 500 to 3000 nM; that for `CCNc1cc2c(cn1)C(=O)N(c1cccc(COC(CCNC)c3cccs3)c1)CCN2C` (stereo not shown) [Example 228, 8-(ethylamino)-1-methyl-4-(3-((3-(methylamino)-1-(thiophen-2-yl)propoxy)methyl)phenyl)-1,2,3,4-tetrahydro-5H-pyrido[4,3-e][1,4]diazepin-5-one], 100 to 500 nM; that for `CCNc1ncc2c(n1)N(C)CCN(c1cccc(C3=CCN(C(=O)OC(C)(C)C)CC3)c1)C2=O` [Example 233, tert-Butyl 4-(3-(2-(ethylamino)-9-methyl-5-oxo-5,7,8,9-tetrahydro-6H-pyrimido[4,5-e][1,4]diazepin-6-yl)phenyl)-3,6-dihydropyridine-1(2H)-carboxylate], greater than 3000 nM.
Still for that read-out and setting: the result for `CCNc1ncc2c(n1)N(C)CCN(c1cccc(C3CCN(C(=O)OC(C)(C)C)CC3)c1)C2=O` [Example 234, tert-Butyl 4-(3-(2-(ethylamino)-9-methyl-5-oxo-5,7,8,9-tetrahydro-6H-pyrimido[4,5-e][1,4]diazepin-6-yl)phenyl)piperidine-1-carboxylate] reads greater than 3000 nM.
Still for that read-out and setting: the result for `CCNc1ncc2c(n1)N(C)CCN(c1cccc(C3CCNCC3)c1)C2=O` [Example 235, 2-(Ethylamino)-9-methyl-6-(3-(piperidin-4-yl)phenyl)-6,7,8,9-tetrahydro-5H-pyrimido[4,5-e][1,4]diazepin-5-one] reads 100 to 500 nM.
With `CCNc1ncc2c(n1)N(C)CCN(c1cccc(-n3cc(CN(CC4CC4)CC4CC4)nn3)c1)C2=O` [Example 245, 6-(3-(4-((bis (cyclopropylmethyl)amino)methyl)-1H-1,2,3-triazol-1-yl)phenyl)-2-(ethylamino)-9-methyl-6,7,8,9-tetrahydro-5H-pyrimido[4,5-e][1,4]diazepin-5-one], the Ki lay in the range of 500 to 3000 nM.
Still for that read-out and setting: the result for `CCNc1ncc2c(n1)N(C)CCN(c1cccc(-n3cc(CCN(C)Cc4ccccc4)nn3)c1)C2=O` [Example 247, 6-(3-(4-(2-(benzyl(methyl)amino)ethyl)-1H-1,2,3-triazol-1-yl)phenyl)-2-(ethylamino)-9-methyl-6,7,8,9-tetrahydro-5H-pyrimido[4,5-e][1,4]diazepin-5-one] reads 500 to 3000 nM; that for `CCNc1ncc2c(n1)N(C)CCN(c1cccc(-n3cc(CCN(C)C)nn3)c1)C2=O` [Example 248, 6-(3-(4-(2-(dimethylamino)ethyl)-1H-1,2,3-triazol-1-yl)phenyl)-2-(ethylamino)-9-methyl-6,7,8,9-tetrahydro-5H-pyrimido[4,5-e][1,4]diazepin-5-one], 100 to 500 nM; that for `CCNc1ncc2c(n1)N(C)CCN(c1cccc(-n3cc(CCN(C)CCc4ccccc4)nn3)c1)C2=O` [Example 249, 2-(ethylamino)-9-methyl-6-(3-(4-(2-(methyl(phenethyl)amino)ethyl)-1H-1,2,3-triazol-1-yl)phenyl)-6,7,8,9-tetrahydro-5H-pyrimido[4,5-e][1,4]diazepin-5-one], 100 to 500 nM.
The same measure, in the same setting: the result for `CCNc1ncc2c(n1)N(C)CCN(c1cccc(Cn3cc(CN(C)Cc4ccccc4)nn3)c1)C2=O` [Example 250, 6-(3-((4-((benzyl (methyl)amino)methyl)-1H-1,2,3-triazol-1-yl)methyl)phenyl)-2-(ethylamino)-9-methyl-6,7,8,9-tetrahydro-5H-pyrimido[4,5-e][1,4]diazepin-5-one] reads 500 to 3000 nM.
Same read-out and setting: the result for `CCNc1ncc2c(n1)N(C)CCN(c1cccc(-c3nnc(CN(C)Cc4ccccc4)o3)c1)C2=O` [Example 255, 6-(3-(5-((benzyl(methyl)amino)methyl)-1,3,4-oxadiazol-2-yl)phenyl)-2-(ethylamino)-9-methyl-6,7,8,9-tetrahydro-5H-pyrimido[4,5-e][1,4]diazepin-5-one] reads 100 to 500 nM.
As to `CCNc1ncc2c(n1)N(C)CCN(c1cccc(OCCCN(C)C)c1)C2=O` [Example 257, 6-(3-(3-(dimethylamino)propoxy)phenyl)-2-(ethylamino)-9-methyl-6,7,8,9-tetrahydro-5H-pyrimido[4,5-e][1,4]diazepin-5-one], the Ki was in the range of 100 to 500 nM.
